The record followed here is ChEMBL document CHEMBL1201862, “PubChem BioAssay data set” (2004).

A short description of test [1]: THP-1 cell cytotoxicity, dose response, cytotoxicity control for non-replicating M. tuberculosis project (AID 489025). The format is functional.
A short description of test [2]: cells. The format is functional.
Test [3] can be described thus: HepG2 cell cytotoxicity, dose response, cytotoxicity control for non-replicating M. tuberculosis project (AID 489018). The format is functional. The conditions noted are these: Mycobacterium tuberculosis.
In test [4] the target is Voltage-dependent T-type calcium channel subunit alpha-1H (Homo sapiens, UniProt O95180). In kind it is functional.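 Note: channel activity triggered by adding a high calcium stimulation buffer.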
In test [5] the target is Glucose-6-phosphate 1-dehydrogenase (Homo sapiens, UniProt P11413). The experiment in a line: inhibition of Homo sapiens G6PD, dose series – biochemical, fluorescence, selectivity assay for P. falciparum G6PD inhibitor project, dose response (AID 504792). In kind it is functional.
A further test deals with Nonstructural protein 1 (Influenza A virus, UniProt Q194T2). In kind it is functional, Influenza A virus (A/California/07/2009(H1N1)).
The target in test [6] is T1, Carboxy-terminal domain RNA polymerase II polypeptide A small phosphatase 1 (Homo sapiens, UniProt Q9GZU7).
T1 sequence (Q9GZU7 whole entry): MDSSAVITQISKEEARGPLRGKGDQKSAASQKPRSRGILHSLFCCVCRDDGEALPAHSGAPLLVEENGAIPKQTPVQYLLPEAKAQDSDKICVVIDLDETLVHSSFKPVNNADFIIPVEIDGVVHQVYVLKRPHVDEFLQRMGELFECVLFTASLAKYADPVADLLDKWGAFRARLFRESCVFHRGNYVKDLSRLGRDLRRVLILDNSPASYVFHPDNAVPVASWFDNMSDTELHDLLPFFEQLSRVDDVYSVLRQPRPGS
The experiment in a line: CTDSP1 inhibitors, concentration-response, biochemical, absorbance readout, ultra-high-throughput screen actives (AID 540297). The format is functional.

For test [7], the target named is Heat shock protein HSP 90-alpha (Homo sapiens, UniProt P07900). The format is functional, organism-based.
In a further test the target is T2, Streptokinase A (Streptococcus pyogenes serotype M1, UniProt P10520).
T2 sequence (P10520 whole entry): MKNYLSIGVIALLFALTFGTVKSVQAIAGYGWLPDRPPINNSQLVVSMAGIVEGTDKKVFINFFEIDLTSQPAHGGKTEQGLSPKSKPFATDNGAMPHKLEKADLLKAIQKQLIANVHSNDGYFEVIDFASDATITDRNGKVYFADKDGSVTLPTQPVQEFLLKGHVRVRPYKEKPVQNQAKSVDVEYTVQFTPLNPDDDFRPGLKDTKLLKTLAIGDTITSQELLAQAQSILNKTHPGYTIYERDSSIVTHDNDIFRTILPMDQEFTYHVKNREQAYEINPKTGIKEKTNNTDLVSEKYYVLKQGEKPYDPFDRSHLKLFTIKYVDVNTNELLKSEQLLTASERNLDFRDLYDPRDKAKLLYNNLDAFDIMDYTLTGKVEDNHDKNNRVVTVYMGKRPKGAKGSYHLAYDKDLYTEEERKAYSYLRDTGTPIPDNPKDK
The experiment in a line: viability-normalized secreted streptokinase activity reduction – plasminogen activation absorbance, OD405, dose response (AID 1914).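 Note: secreted streptokinase activity via plasminogen activation per viability signal from cell pellet.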 The format is functional, Streptococcus pyogenes M1 GAS.

In test [8] the test system is Streptococcus sp. 'group A'. Kind of test: Streptococcus pyogenes SK(-)GAS viability under kanamycin – luminescence, BacTiterGlo, confirmation, counter-screen for streptokinase expression inhibitor project, dose response (AID 1900). In kind it is functional, organism-based. The note with it: Streptococcus sp. 'group A'. For orientation: Counterscreens check selectivity or assay interference.

In a further test the test system is Streptococcus. The experiment in a line: GAS UMAA2166 growth inhibition – luminescence, BacTiterGlo, counter-screen for streptokinase expression inhibitor project, dose response (AID 1915).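 Note: potency for reduction of bacterial viability or growth.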 In kind it is functional, organism-based. The note with it: Streptococcus.
Test [9] in a line: viability of PTEN-deleted HCT116 cells – cell-based, HCT116 PTEN knockout, dose response (AID 1047).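 Note: HCT116 colon tumor cells with PTEN knocked out; cells exposed to compound for 60 hours before readout; potency for loss of cell viability measured by luminescence.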 The format is functional.
Test [10] is described as follows: Vero E6 cell cytotoxicity, dose response, cytotoxicity control for non-replicating M. tuberculosis project, secondary assay (AID 492998). In kind it is functional, VeroE6. The conditions noted are these: Vero C1008.
Test [11] is described as follows: viability of HCT116 lacking mutant beta-catenin – cell-based, human colon tumor, dose response (AID 1045).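 Note: HCT116 colon tumor cells with beta catenin knocked out; cells exposed to compound for 60 hours.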 The format is functional.
The next test concerns INS1. Kind of test: INS-1E survival protection against cytokine death – cell-based, luminescence, retest, dose response (AID 449756).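 Note: cell death triggered by IL-1 beta plus TNF-alpha plus IFN-gamma mixture; protective hits raise ATP signal compared with cytokine alone wells.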 In kind it is functional. The conditions noted are these: Rattus norvegicus.
A short description of test [12]: microbe, parasite or virus in culture. The conditions noted are these: Mycobacterium tuberculosis. In kind it is functional.
The nature of test [13]: Trypanosoma cruzi growth suppression in host cells – NIH3T3 host cells, beta-gal luminescence, confirmation (AID 2044).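 Note: intracellular parasites grown in NIH/3T3 mouse fibroblasts as host cells; luminescent beta-galactosidase reporter signal from transgenic T. cruzi replicating inside host cells; inhibitors lower the luminescence signal.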 The format is functional, cell-based.
A short description of test [14]: NIH3T3 cell viability loss – ATP luminescence, mouse fibroblasts, counter-screen, dose response (AID 2010).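 Note: cells exposed to compound for about 90 hours before reading.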 The format is functional, cell-based. The note with it: NIH3T3.
Another test deals with Vero. The experiment in a line: cells. In kind it is functional. The note with it: Chlorocebus sabaeus.
Test [15] is described as follows: HEK-293T cell viability reduction – luminescence, B-cell screen hits, cytotoxicity control for BCR NF-kB inhibitor project, dose response (AID 489021).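 Note: HEK-293T cells carrying an NF-kB luciferase reporter; cells exposed to compound for about 14 hours before viability readout.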 In kind it is functional, cell-based.
Test [16] in a line: alpha-synuclein stem-loop luciferase translation blockers – H4 neuroglioma cells, luminescence, confirmation (AID 1988). The format is functional, cell-based.
Test [17] in a line: Luminescence Cell-Based Dose Response HTS to Identify Inhibitors of 5'UTR Stem-Loop Driven Prion Protein mRNA Translation in H4 Neuroglioblastoma Cells. [Related pubchem assays: 1827 (Project Summary), 1813 (Primary HTS)]. In kind it is functional.
A short description of test [18]: luciferase reporter signal suppression in cells – H4 neuroglioma cells, luminescence, dose response (AID 1990). In kind it is functional, cell-based.
Test [19] can be described thus: NIH-3T3 fibroblast cytotoxicity, dose response, cytotoxicity control, cell-based, fluorescence, Alamar Blue, secondary assay (AID 2327).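 Note: NIH-3T3 mouse fibroblasts cultured with fluconazole at 8 µg/mL.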 The format is functional. (In general: Resazurin is reduced to fluorescent resorufin, in cell work by metabolically active cells.)
A short description of test [20]: cells. The format is functional, cell-based.
The nature of test [21]: cells. The format is functional, cell-based. The source holds these as a separate data set.
Test [22] in a line: fluconazole-exposed Candida albicans growth modulators – fluorescence, retest, confirmation (AID 2467). The format is functional, cell-based.

Active and inactive are the calls of the source. Where only a bound is given, the exact number is not on record here.

Chain of Voltage-dependent T-type calcium channel subunit alpha-1H (O95180 whole entry): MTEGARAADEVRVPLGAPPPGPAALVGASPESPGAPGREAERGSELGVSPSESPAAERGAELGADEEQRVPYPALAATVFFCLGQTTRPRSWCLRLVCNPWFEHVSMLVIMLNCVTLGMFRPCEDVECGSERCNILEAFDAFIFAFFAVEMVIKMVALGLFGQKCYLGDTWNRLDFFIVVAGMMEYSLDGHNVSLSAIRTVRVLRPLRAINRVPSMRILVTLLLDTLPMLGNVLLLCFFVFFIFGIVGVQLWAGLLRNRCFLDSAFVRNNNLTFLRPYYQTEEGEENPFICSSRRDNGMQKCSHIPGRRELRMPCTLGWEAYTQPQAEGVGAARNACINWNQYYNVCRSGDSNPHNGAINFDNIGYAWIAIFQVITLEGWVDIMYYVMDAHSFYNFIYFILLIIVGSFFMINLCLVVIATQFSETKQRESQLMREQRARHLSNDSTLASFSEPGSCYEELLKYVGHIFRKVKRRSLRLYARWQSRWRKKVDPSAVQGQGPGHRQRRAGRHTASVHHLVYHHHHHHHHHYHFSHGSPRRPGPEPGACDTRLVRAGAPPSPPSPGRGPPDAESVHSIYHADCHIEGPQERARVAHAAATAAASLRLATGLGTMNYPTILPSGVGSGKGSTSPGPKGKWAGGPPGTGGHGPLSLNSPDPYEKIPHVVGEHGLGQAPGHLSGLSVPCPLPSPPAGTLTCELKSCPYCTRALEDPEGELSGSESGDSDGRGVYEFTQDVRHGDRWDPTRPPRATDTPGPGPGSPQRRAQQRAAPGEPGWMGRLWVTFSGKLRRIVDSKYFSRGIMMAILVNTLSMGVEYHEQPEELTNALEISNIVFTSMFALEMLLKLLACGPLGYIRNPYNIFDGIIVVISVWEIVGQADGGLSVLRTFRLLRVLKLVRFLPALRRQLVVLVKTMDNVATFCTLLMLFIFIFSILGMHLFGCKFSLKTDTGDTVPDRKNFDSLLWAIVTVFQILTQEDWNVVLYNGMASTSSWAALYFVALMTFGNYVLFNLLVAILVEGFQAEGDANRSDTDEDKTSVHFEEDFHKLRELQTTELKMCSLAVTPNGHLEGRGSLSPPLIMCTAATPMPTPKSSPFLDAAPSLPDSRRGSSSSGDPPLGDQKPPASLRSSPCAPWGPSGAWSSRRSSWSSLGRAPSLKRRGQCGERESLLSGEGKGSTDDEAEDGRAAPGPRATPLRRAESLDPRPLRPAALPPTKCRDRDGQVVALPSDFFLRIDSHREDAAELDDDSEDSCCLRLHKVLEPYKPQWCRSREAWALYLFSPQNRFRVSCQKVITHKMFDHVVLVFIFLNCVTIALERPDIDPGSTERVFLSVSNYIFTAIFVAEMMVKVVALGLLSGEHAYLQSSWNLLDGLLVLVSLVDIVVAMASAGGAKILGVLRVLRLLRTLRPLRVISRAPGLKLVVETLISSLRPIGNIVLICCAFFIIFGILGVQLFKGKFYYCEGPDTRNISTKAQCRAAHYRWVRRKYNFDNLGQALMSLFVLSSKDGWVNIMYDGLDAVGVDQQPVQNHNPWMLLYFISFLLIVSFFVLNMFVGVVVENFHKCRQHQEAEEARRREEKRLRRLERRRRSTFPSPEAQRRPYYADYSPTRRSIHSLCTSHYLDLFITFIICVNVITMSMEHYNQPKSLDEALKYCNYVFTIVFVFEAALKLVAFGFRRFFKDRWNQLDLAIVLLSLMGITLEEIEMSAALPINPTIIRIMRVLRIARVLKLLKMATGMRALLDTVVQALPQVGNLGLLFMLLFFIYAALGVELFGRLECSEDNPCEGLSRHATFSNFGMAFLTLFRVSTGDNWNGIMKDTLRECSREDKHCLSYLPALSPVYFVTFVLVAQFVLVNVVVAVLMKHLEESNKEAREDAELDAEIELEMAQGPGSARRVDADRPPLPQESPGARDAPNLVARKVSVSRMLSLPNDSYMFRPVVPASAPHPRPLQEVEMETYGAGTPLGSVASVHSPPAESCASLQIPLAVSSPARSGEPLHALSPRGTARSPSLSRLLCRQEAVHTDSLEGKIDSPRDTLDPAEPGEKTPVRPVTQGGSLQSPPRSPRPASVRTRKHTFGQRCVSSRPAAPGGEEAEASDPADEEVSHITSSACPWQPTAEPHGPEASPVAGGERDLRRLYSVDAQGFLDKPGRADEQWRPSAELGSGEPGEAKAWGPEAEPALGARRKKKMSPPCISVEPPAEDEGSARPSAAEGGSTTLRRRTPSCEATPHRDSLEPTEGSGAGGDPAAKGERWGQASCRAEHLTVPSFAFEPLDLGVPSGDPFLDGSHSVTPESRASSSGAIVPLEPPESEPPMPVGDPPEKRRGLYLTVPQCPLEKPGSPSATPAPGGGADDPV
Chain of Nonstructural protein 1 (Q194T2 whole entry, the tested form may be a part): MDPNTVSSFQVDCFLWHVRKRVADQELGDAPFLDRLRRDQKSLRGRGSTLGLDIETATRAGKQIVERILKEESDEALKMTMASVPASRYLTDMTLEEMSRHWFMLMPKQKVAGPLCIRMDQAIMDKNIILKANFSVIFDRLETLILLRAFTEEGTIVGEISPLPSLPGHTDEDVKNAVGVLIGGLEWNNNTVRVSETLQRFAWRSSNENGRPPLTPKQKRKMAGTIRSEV
Chain of Glucose-6-phosphate 1-dehydrogenase (P11413 whole entry): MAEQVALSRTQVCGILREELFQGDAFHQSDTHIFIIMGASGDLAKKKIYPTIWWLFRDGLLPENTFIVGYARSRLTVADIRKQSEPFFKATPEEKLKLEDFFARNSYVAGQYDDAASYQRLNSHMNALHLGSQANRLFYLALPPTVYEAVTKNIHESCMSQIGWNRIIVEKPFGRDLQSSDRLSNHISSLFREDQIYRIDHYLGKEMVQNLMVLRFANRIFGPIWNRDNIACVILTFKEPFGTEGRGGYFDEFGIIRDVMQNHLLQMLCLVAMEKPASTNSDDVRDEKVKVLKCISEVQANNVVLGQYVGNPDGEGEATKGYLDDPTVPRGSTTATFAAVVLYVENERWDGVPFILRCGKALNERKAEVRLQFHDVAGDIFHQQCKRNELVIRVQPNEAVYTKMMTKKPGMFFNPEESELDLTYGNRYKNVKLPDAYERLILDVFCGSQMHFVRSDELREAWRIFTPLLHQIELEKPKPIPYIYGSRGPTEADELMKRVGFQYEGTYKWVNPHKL

By IC50 is commonly meant the point on the concentration scale where inhibition reaches its midpoint. `CC1CCN(CCc2nc3cc(NC(=O)COc4ccc(Cl)cc4)ccc3n2C)CC1`: the CC50 in test [1] is 26.1 µM (active); in [3] it was > 20 µM (active). For the same compound, the IC50 in “cells [2]” is 28.1 µM (active).

Usually EC50 stands for the concentration needed to bring the measured effect to its halfway point. Consider `CN(C)c1ccc(C(c2nnnn2CCOC(=O)Nc2ccc(Cl)cc2)N2CCOCC2)cc1` (stereo unspecified), for which the EC50 in test [4] is 9.17 µM (active).

With `Cc1cccc(OCC(=O)NCC(=O)N/N=C/c2ccccc2)c1`, the IC50 in test [5] was > 80 µM (inactive).

With `Cc1cccc(C(=O)Nc2sc3c(c2C(=O)O)CCCC3)c1`, in test [5], the IC50 was > 80 µM (inactive).

In the case of `CC/C(NCc1ccc2c(c1)OCO2)=C1/C(=O)NC(=O)N(C2CCCCC2)C1=O`, the EC50 in test [4] was 5.15 µM (active).

In the case of `CC1=[N+](C)c2c(ccc3cccnc23)C1(C)C`, the IC50 at Nonstructural protein 1 is > 100 µM (active).

`O=C(NNC(=O)c1ccc2ccccc2c1)c1ccc(Cl)c(Cl)c1`: the IC50 in test [6] is > 80 µM (inactive).

By AC50 is commonly meant the concentration at which the activity in the assay is half-maximal. In the case of `Cc1cccc(C)c1NC(=O)C(Cl)C(=O)c1ccccc1` (stereo unspecified), the AC50 in [7] is 0.855 µM (active).

In the case of `N[C@@H](C(=O)N[C@@H]1C(=O)N2C(C(=O)O)=C(Cl)CS[C@H]12)c1ccccc1` [CEFACLOR ANHYDROUS], the results for the EC50 (at Streptokinase A; in test [8]; with Streptococcus) were > 150 µM (not active), 0.559 µM (active) and 1.32 µM (active), respectively. Besides, the IC50 in test [6] was 7.18 µM (active).

With `O=C(Cn1cnc2scc(-c3cccc([N+](=O)[O-])c3)c2c1=O)NCc1ccco1`, the IC50 in test [6] was 3.15 µM (active).

On to `CN(C)c1ccc(N=Nc2ccc3ncccc3c2)cc1`, for which the IC50 on Nonstructural protein 1 is 20.4 µM (active).

As for `CC(=O)Oc1c(C)cc(Cl)cc1C(=O)Nc1ccc([N+](=O)[O-])cc1Cl`, the CC50 in test [1] was 5.03 µM (active); in test [10], 3.96 µM (active); in test [12], 1.54 µM (active); in [3], 7.96 µM (active). The figures for the EC50 in test [9] and in test [11] were 1.99 µM (active) and 2.16 µM (active), respectively. Further, in the test with INS1, the AC50 was 1.37 µM (active). In “cells [2]”, the IC50 is 9.46 µM (active).

On to `Cc1c(C(=O)NCC2COc3ccccc3O2)oc2ccc(S(=O)(=O)N(C)C3CCCCC3)cc12` (stereo unspecified), for which the EC50 was 5.64 µM (active) in test [4], 1.89 µM (active) in test [13] and > 60 µM (not active) in [14].

On to `COc1ccccc1OCC(=O)N(Cc1nc(-c2ccccc2)no1)C1CCCCC1`, for which the EC50 in test [4] was 5.55 µM (active).

With `CCOC(=O)c1ccc(N2C(=O)CC(N(C)CCc3ccc(OC)c(OC)c3)C2=O)cc1` (stereo unspecified), the AC50 in test [7] was 3.1 µM (active).

`CC(C)Cn1c(SCC(=O)c2ccc(Cl)s2)nnc1-c1ccco1`: in the test with Vero, the CC50 was > 25 µM (active). Further, in test [4], the EC50 was 10.6 µM (active).

`O=C(Nc1nc2ccccc2s1)C1CC(=O)N(c2ccccc2)C1` (stereo unspecified): in test [4], the EC50 is 8.11 µM (active).

Regarding `Cc1ccc(-c2cn3c([n+]2-c2ccccc2)SCC3)cc1`, the IC50 in test [15] is > 80 µM (inactive). In addition, the AC50 in the test on INS1 is 3.11 µM (active). In addition, the EC50 in test [13] is 0.282 µM (active); in test [14], > 60 µM (not active).

As to `CCC(=O)Nc1nc2ccccc2n1Cc1ccc(C)cc1`, the values for the CC50 in [1], in test [10] and in [3] were > 40 µM (active), 16.1 µM (active) and > 20 µM (active), respectively. Also, the figures for the EC50 in test [16], in [17] and in [18] were 8.69 µM (active), 11.8 µM (active) and 15.1 µM (active), respectively. Moreover, the IC50 in “cells [2]” is 0.7 µM (active).

Turning to `Cc1cc(NCc2ccccn2)n2nc(C)c(-c3ccccc3)c2n1`, the CC50 was 6.19 µM (active) in [1], 13.6 µM (active) in [10] and 3.11 µM (active) in [3]. In the test “cells [2]”, the half-inhibitory concentration (IC50) is 3.2 µM (active).

Consider `O=C(CSc1ccccn1)Nc1ccc2c(c1)C(=O)c1ccccc1C2=O`, for which the IC50 in test [6] was 3.08 µM (active).

Take `CCCc1cc(NCc2ccccn2)n2nc(C)c(-c3ccccc3)c2n1`: the CC50 in test [1] was 10.2 µM (active); in [10] it was > 20 µM (active); in test [3], 4.48 µM (active). The AC50 in test [7] is 1.58 µM (active). In addition, the EC50 in [13] was 3.58 µM (active); at Streptokinase A it was > 150 µM (not active); in test [8], 6.67 µM (active); in the test on Streptococcus, 21.7 µM (active); in test [14], 8.73 µM (active). Moreover, the IC50 in “cells [2]” is 1.18 µM (active).

For the compound `COc1ccc(NC(=O)c2nnn(Cc3cccc(F)c3)c2N)c(OC)c1`, the IC50 in [15] is > 80 µM (inactive).

As to `CSC1CCCCC1(O)CSc1nc2c(cc1C#N)CCCC2` (stereo unspecified), the IC50 in test [15] is > 80 µM (inactive). The EC50 was > 120 µM (not active) in test [16], 22.3 µM (active) in [17] and 14.1 µM (active) in [18].

In the case of `CN1CCN(Cc2cc(COCc3ccccc3)c3cccnc3c2O)CC1`, the EC50 is > 150 µM (inconclusive) in [19]; > 350 µM (not active) in “cells [20]”; 7.14 µM (active) in “cells [21]”; 3.11 µM (active) in [9]; 5.83 µM (active) in test [16]; 0.8 µM (active) in test [22]. Further, the EC50 was 3.23 µM (active) in test [11]; 1.37 µM (active) in test [13]; 8.1 µM (active) in [17]; 7.62 µM (active) in test [14]; 7.01 µM (active) in test [18]. For the same compound, at Nonstructural protein 1, the IC50 was 3.98 µM (active).

Turning to `Cc1ccc(-c2nnn(CC(=O)N3CCCc4ccccc43)n2)cc1`, the EC50 in test [4] is 3.43 µM (active).
